# Test results as given in patent US20110183336A1, “Method to Predict Responsiveness of Breast Cancer to Polyamine-Type Chemotherapy” (THE REGENTS OF THE UNIVERSITY OF CALIFORNIA, priority 2007, published 2011).
# Tests used:
# Experiment in all cases: Cell growth inhibition assay (Cell Titer Glo)
# Assay type in all cases: cell-based, human
# 184A1 = conditions: 184A1, HMEC, 72 h
# Method: (§1) Cell culture: Breast cell lines were obtained from the ATCC and from collections developed in the laboratories of Drs. Steve Ethier and Adi Gazdar.
# (§2) Cell growth inhibition assay and data analysis: Cells were plated at proper density in 96-well plates such that they would remain in log growth at the end of assay time. The cells were allowed to attach overnight before being exposed to CGC-11047 for 72 h. Drugs were dissolved in water as 100 mM stock. For the dose response study, a set of 9 doses from 5×10^−3 to 1.3×10^−8 M (final concentration) in 1:5 serial dilution were added in triplicate wells. The final DMSO concentration in the treated well was 0.3% or less. The cell growth was determined using Cell Titer Glo (CTG) assay (CellTiter-Glo Luminescent Cell Viability Assay, Promega, Madison, Wis.), with slight modification form manufacturer's protocol, at day 0 (time when drug was added) and at day 3 of drug exposure. Briefly, CTG reagent was diluted with PBS (1:1, volume: volume) and the culture media was removed from the 96-well plate prior to adding 50 μl per well of the diluted CTG reagent. Luminescence from the assay was recorded using BIO-TEK FLx800.
# (§3) Data calculations were made according to the method described by the NCI/NIH DTP Human Tumor Cell Line Screen Process (http://dtp.nci.nih.gov/branches/btb/ivclsp.html) and as described previously (Monks, A et al., JNCI 83:757-766, 1991). The percent growth curve is calculated as [(T−T0)/(C−T0)]×100, where T0 is the cell count at day 0, C is the vehicle control (e.g. 0.3% DMSO without drug) cell count at day 3, and T is the cell count at the test concentration. The GI50 and TGI value are determined as the drug concentration that results in a 50% and 0% growth at 72 h drug exposure. LC50 is calculated as [(T−T0)/T0]×100=−50, when T<T0.
# 184B5 = conditions: 184B5, HMEC, 72 h
# Method: as §1, §2, §3
# 600MPE = conditions: Luminal, 72 h
# Method: as §1, §2, §3
# BT474 = conditions: BT474, Luminal, 72 h
# Method: as §1, §2, §3
# BT549 = conditions: BT549, Basal B, 72 h
# Method: as §1, §2, §3
# CAMA1 = conditions: CAMA1, Luminal, 72 h
# Method: as §1, §2, §3
# HCC1419 = conditions: HCC1419, Luminal, 72 h
# Method: as §1, §2, §3
# HCC1569 = conditions: HCC1569, Basal A, 72 h
# Method: as §1, §2, §3
# HCC1937 = conditions: HCC1937, Basal A, 72 h
# Method: as §1, §2, §3
# HCC70 = conditions: HCC70, Basal A, 72 h
# Method: as §1, §2, §3
# LY2 = conditions: LY2, Luminal, 72 h
# Method: as §1, §2, §3
# MCF10F = conditions: N, Basal A, 72 h
# Method: as §1, §2, §3
# MCF7 = conditions: MCF7, Luminal, 72 h
# Method: as §1, §2, §3
# MDAMB231 = conditions: MDAMB231, Basal B, 72 h
# Method: as §1, §2, §3
# MDAMB361 = conditions: MDAMB361, Luminal, 72 h
# Method: as §1, §2, §3
# MDAMB468 = conditions: MDAMB468, Basal A, 72 h
# Method: as §1, §2, §3
# S1 = conditions: S1, HMEC, 72 h
# Method: as §1, §2, §3
# SUM1315MO2 = conditions: SUM1315MO2, Basal B, 72 h
# Method: as §1, §2, §3
# SUM159PT = conditions: Basal B, 72 h
# Method: as §1, §2, §3
# SUM185PE = conditions: Luminal, 72 h
# Method: as §1, §2, §3
# SUM229PE = conditions: Basal B, 72 h
# Method: as §1, §2, §3
# T4 = conditions: T4, Basal B, 72 h
# Method: as §1, §2, §3
# UACC812 = conditions: UACC812, Luminal, 72 h
# Method: as §1, §2, §3
# ZR751 = conditions: ZR751, Luminal, 72 h
# Method: as §1, §2, §3
smiles,measurement,setting,value
CCNCCCNC/C=C\CNCCCNCC [CGC-11047],TGI,184A1,220 µM
same,GI50,184A1; Homo sapiens,2 µM
same,TGI,184B5,400 µM
same,GI50,184B5; Homo sapiens,300 µM
same,GI50,600MPE; Homo sapiens,2 µM
same,TGI,600MPE,2000 µM
same,TGI,BT474,1000 µM
same,GI50,"BT474; Homo sapiens, BT-474",400 µM
same,TGI,BT549,1300 µM
same,GI50,"BT549; Homo sapiens, BT-549",1 µM
same,TGI,CAMA1,1100 µM
same,GI50,"CAMA1; Homo sapiens, CAMA-1",350 µM
same,TGI,HCC1419,31 µM
same,GI50,HCC1419; Homo sapiens,7 µM
same,TGI,HCC1569,2000 µM
same,GI50,HCC1569; Homo sapiens,220 µM
same,TGI,HCC1937,300 µM
same,GI50,HCC1937; Homo sapiens,0.8 µM
same,TGI,HCC70,0.53 µM
same,GI50,HCC70; Homo sapiens,0.4 µM
same,GI50,LY2; Homo sapiens,1300 µM
same,TGI,LY2,3000 µM
same,GI50,"MCF10F; Homo sapiens, MCF-10F",100 µM
same,TGI,MCF10F,1100 µM
same,GI50,MCF7; Homo sapiens,90 µM
same,TGI,MCF7,1200 µM
same,GI50,"MDAMB231; Homo sapiens, MDA-MB-231",2000 µM
same,TGI,MDAMB231,>5000 µM
same,GI50,"MDAMB361; Homo sapiens, MDA-MB-361",600 µM
same,TGI,MDAMB361,2000 µM
same,GI50,"MDAMB468; Homo sapiens, MDA-MB-468",0.5 µM
same,TGI,MDAMB468,2000 µM
same,GI50,S1; Homo sapiens,0.8 µM
same,TGI,S1,3000 µM
same,GI50,SUM1315MO2; Homo sapiens,700 µM
same,TGI,SUM1315MO2,1300 µM
same,TGI,SUM159PT,3000 µM
same,GI50,"SUM159PT; Homo sapiens, SUM-159-PT",200 µM
same,GI50,SUM185PE; Homo sapiens,300 µM
same,TGI,SUM185PE,>500 µM
same,TGI,SUM229PE,1100 µM
same,GI50,SUM229PE; Homo sapiens,90 µM
same,GI50,T4; Homo sapiens,2 µM
same,TGI,T4,800 µM
same,GI50,"UACC812; Homo sapiens, UACC-812",21 µM
same,TGI,UACC812,300 µM
same,GI50,"ZR751; Homo sapiens, ZR-75-1",13 µM
same,TGI,ZR751,800 µM
